Data as given in publication PMC12165043, “Neophytadiene, a Plant Specialized Metabolite, Mediates the Virus‐Vector‐Plant Tripartite Interactions” (Advanced Science, 2025).
Values joined by “and” are separate entries in the source; they are usually repeats but may differ in a detail not shown here. Identical values can stand only once.

Experiments:
[1] = tested on: Trialeurode vaporariorum; parameters: method as in PMID 35244166; settings: ref [47]; cited from earlier work
[2] = biological target: T1, BtOBP2 (Bemisia tabaci, UniProt A0A097BTY7); assay: Fluorescence binding of the probe 1-NPN to recombinant BtOBP2; settings: recombinant BtOBP2 2 µM, Scatchard analysis; read-out: binding constant (Kd) of 1-NPN to BtOBP2
T1 sequence (A0A097BTY7 23-247): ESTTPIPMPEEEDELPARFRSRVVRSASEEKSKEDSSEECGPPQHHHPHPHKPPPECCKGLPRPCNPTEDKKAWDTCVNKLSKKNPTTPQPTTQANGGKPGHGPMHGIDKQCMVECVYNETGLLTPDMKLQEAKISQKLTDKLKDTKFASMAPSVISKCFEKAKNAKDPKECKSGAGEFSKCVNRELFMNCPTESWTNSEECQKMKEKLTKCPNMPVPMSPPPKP
From the text: The specific primers for BtOBP2 were designed using Primer 5 software to amplify the coding sequence according to the Phanta Max Super‐Fidelity DNA Polymerase protocol. Target DNA fragments were purified and ligated into the pEASY‐Blunt cloning vector, and positive colonies were identified by PCR and sequenced. The cloned plasmid was ligated into the pET28a vector (Invitrogen, Waltham USA) following digestion with BamHI and SalI. The resulting construct was transformed into Rosetta (DE3) Escherichia coli competent cells. […] The target protein was verified by 10% SDS‐PAGE, and its concentration was determined with a BCA protein assay kit. […] The target protein was subjected to Coomassie blue staining and western blot validation through 10% SDS‐PAGE using anti His‐Tag antibody, and its concentration was determined using a BCA protein assay kit. […]
The binding affinity of BtOBP2 to the fluorescent probe N‐phenyl‐1‐naphthyl‐amine (1‐NPN1) was determined using a FL7000 fluorescence spectrophotometer (Hitachi, Tokyo Japan). […] The optimal excitation and emission wavelengths of the recombinant protein BtOBP2 were determined, and the 1‐NPN/BtOBP2 mixture was excited at 220 nm with emission spectra recorded from 300 to 500 nm. The binding constants (Kd) of BtOBP2 to 1‐NPN were calculated by Scatchard analysis using Prism 5 software. […]

[3] = tested on: TYLCV; parameters: method as in PMID 36086899; settings: ref [48]; cited from earlier work
[4] = tested on: Bemisia tabaci whiteflies; assay: Y-tube olfactory choice assay, volatile standard versus solvent control; assay type: in vivo; settings: for Whitefly preference for plant volatiles versus control (solvent only): number of whiteflies in the volatile arm: Fig 1F raw data, individual replicates (n = 9), 100 whiteflies released, counted for 20 min; for impact of volatile on whitefly preference: Y-tube, volatile standard versus solvent control, n = 9, result in words
Protocol: Y‐tube preference assays were conducted as per Shi et al.^[ [51] ^] with an air flow of 100 mL min^−1. A volatile standard (Sigma Aldrich, USA) and control (solvent) were placed in glass containers at either end of the Y‐tube and 100 whiteflies were released at the Y‐tube base. The number of whiteflies moving more than 5 cm into the Y‐tube arm and remaining there for at least 15 s was counted for 20 min. There were nine replicates per volatile for each of the eight volatile compounds.

[5] = tested on: Bemisia tabaci whiteflies; assay: Whitefly preference for neophytadiene after RNA interference (dsGFP, dsBtOBP2, dsOBP3); settings: for preference (whiteflies choosing Neophytadiene): Neophytadiene versus CK, single replicates; for preference (whiteflies choosing Neophytadiene) / preference (whiteflies choosing Neophytadiene), mean: Fig 7D; for preference (whiteflies choosing Neophytadiene), mean: unlabelled last row = mean of the 9 replicates
[6] = tested on: whiteflies; parameters: method as in PMID 31842757; settings: ref [18]; cited from earlier work
[7] = tested on: Bemisia tabaci whiteflies; assay: Whole-plant preference test, OELhca4 tomato plants sprayed with neophytadiene or water; assay type: in vivo
Protocol: Tests were conducted as per Shi et al.^[ [49] ^] with slight modifications. ToCV‐infected or control (mock‐inoculated) tomato plants were used for preference tests in screened cages. A second set of preference tests was also conducted using OELhca4 (Lhca4 overexpressed) tomato plants sprayed either with neophytadiene (3 µg g^−1 in water) or water only (control). Each cage contained two plants placed 40 cm apart. Under dim light, about 100 whiteflies that had been starved for 2 h were released above the center of the two plants and the whiteflies on each plant counted after 48 h. Each of the two preference tests (ToCV‐infected versus uninfected plants; OELhca4 plants sprayed with either neophytadiene or water) was replicated nine times.

[8] = biological target: T1, BtOBP2; assay: Fluorescence competitive binding assay (displacement of 1-NPN from BtOBP2); settings: mean ± SEM; for IC50: BtOBP2 2 µM, ligand 2 to 20 µM, read-out: IC50, ligand concentration displacing 50% of the fluorescence intensity of the BtOBP2/1-NPN complex; for Ki: Ki = [IC50]/(1 + [1-NPN]/K1-NPN), read-out: Ki, dissociation constant
From the text: The specific primers for BtOBP2 were designed using Primer 5 software to amplify the coding sequence according to the Phanta Max Super‐Fidelity DNA Polymerase protocol. Target DNA fragments were purified and ligated into the pEASY‐Blunt cloning vector, and positive colonies were identified by PCR and sequenced. The cloned plasmid was ligated into the pET28a vector (Invitrogen, Waltham USA) following digestion with BamHI and SalI. The resulting construct was transformed into Rosetta (DE3) Escherichia coli competent cells. When the OD600 of the recombinant BtOBP2 reached 0.6 to 0.8, induction was initiated by adding isopropyl‐β‐D‐1‐thiogalactopyranoside (IPTG) (1 mM) at 16 °C for 16 h, followed by purification using the Ni‐NTA purification system.^[ [59] ^] The target protein was verified by 10% SDS‐PAGE, and its concentration was determined with a BCA protein assay kit. The recombinant purified protein was stored at −80 °C until use. The target protein was subjected to Coomassie blue staining and western blot validation through 10% SDS‐PAGE using anti His‐Tag antibody, and its concentration was determined using a BCA protein assay kit. The purified recombinant protein was stored at −80 °C.
The binding affinity of BtOBP2 to the fluorescent probe N‐phenyl‐1‐naphthyl‐amine (1‐NPN1) was determined using a FL7000 fluorescence spectrophotometer (Hitachi, Tokyo Japan). Ligands and 1‐NPN were dissolved in HPLC‐grade methanol to a concentration of 1 mM, and then titrated with BtOBP2 (2 µM) to final concentrations ranging from 2 to 20 µM.^[ [60] ^] The optimal excitation and emission wavelengths of the recombinant protein BtOBP2 were determined, and the 1‐NPN/BtOBP2 mixture was excited at 220 nm with emission spectra recorded from 300 to 500 nm. The binding constants (Kd) of BtOBP2 to 1‐NPN were calculated by Scatchard analysis using Prism 5 software. The IC50 represents the concentration at which 50% of the probe was displaced by the ligand. The Ki values were calculated according to the following equation: Ki = [IC50]/(1 + [1‐NPN]/K1‐NPN), where [1‐NPN] is the free concentration of 1‐NPN, and K1‐NPN is the Kd of the 1‐NPN/BtOBP2 complex.^[ [61] ^]

[9] = tested on: BtOBP1-8 genes; assay: Transcriptional response of BtOBP1-8 to neophytadiene (qRT-PCR); assay type: in vivo, Bemisia tabaci
Protocol: RNA was extracted using trizol reagent (Invitrogen, Waltham USA) and dissolved in double‐deionized water; cDNA was synthesized from total RNA (1 µg) using HiScript 1st Strand cDNA Synthesis kit (Vazyme, Nanjing China). Real‐time qPCR was conducted using the MonAmp SYBR Green qPCR Mix (Thermofisher, Waltham USA). Actin and UBI were selected as the housekeeping genes (Table S1, Supporting Information). Each experiment was repeated at least three times and relative gene expression levels calculated for analysis using the 2^−∆∆Ct method.
To investigate the expression profiles of BtOBP1‐8 genes in B. tabaci under neophytadiene treatment, the following experiment was performed. Tomato plants with an identical growth cycle were selected as the treatment group (sprayed with 3 µg g^−1 neophytadiene) and the control group (treated with water only). The treated plants were then placed in a 10 L hermetic container. Once the volatilization reached equilibrium, 500 pairs of adults were introduced into the closed container and fumigated under airtight conditions. Subsequently, the whiteflies were sampled at distinct time points (0, 24, 48, 72, 96 h) respectively for the determination of expression levels.

Compound: CC12CCC(CC1)C(C)(C)O2 [1, 8‐cineole]
- effect on settling of whitefly on an otherwise-preferred tomato cultivar [1]: repelled

Compound: c1ccc(Nc2cccc3ccccc23)cc1 [1‐NPN, N‐Phenyl‐1‐naphthylamine]
- Kd [2]: 2.94 ± 0.08 µM

Compound: CC/C=C\CCO [(Z)‐3‐hexenol]
- effect on tomato defense against infection by whitefly-transmitted TYLCV [3]: improves tomato defense

Compound: C=CC(=C)CCCC(C)CCCC(C)CCCC(C)C (stereo not shown) [Neophytadiene]
- Whitefly preference for plant volatiles versus control (solvent only): number of whiteflies in the volatile arm [4]: 86 and 89 and 65 and 80 and 52 and 100 and 48
- impact of volatile on whitefly preference [4]: attracted B. tabaci
- preference for neophytadiene of BtOBP2-silenced (dsOBP2) whiteflies ([5]; after RNA interference of BtOBP2, n = 9): no preference
- preference for neophytadiene of BtOBP3-silenced (dsOBP3) whiteflies ([5]; after RNA interference of BtOBP3, n = 9): still exhibited preference
- preference (whiteflies choosing Neophytadiene) ([5]; dsGFP-treated whiteflies): 95 and 86 and 80 and 93 and 85 and 88 and 79 and 90
- preference (whiteflies choosing Neophytadiene), mean ([5]; dsGFP-treated whiteflies): 87.6667
- preference (whiteflies choosing Neophytadiene) ([5]; dsOBP2-treated whiteflies): 36 and 41 and 48 and 46 and 42 and 58 and 59 and 45
- preference (whiteflies choosing Neophytadiene), mean ([5]; dsOBP2-treated whiteflies): 46.3333
- attraction of whiteflies [6]: highly attractive to whiteflies
- preference (whiteflies on plant) ([7]; OELhca4+Neophytadiene versus OELhca4, Fig 5J, single replicates): 80 and 70 and 78 and 72 and 60 and 66 and 76 and 73
- Whitefly preference for neophytadiene-sprayed versus water-sprayed OELhca4 plants ([7]; neophytadiene 3 µg g^−1 in water, whiteflies counted after 48 h, n = 9): attracted more whiteflies
- IC50 [8]: 7.95 ± 0.45 µM
- OBP1 relative expression ([9]; 24h, Fig 7A): 1.5096 and 1.0333 and 1.7792
- OBP2 relative expression ([9]; 24h, Fig 7A): 2.314 and 1.938 and 1.255
- OBP3 relative expression ([9]; 24h, Fig 7A): 2.295 and 2.274 and 2.135
- OBP4 relative expression ([9]; 24h, Fig 7A): 1.915 and 1.067 and 1.378
- OBP5 relative expression ([9]; 24h, Fig 7A): 0.9141 and 1.109 and 1.357
- OBP7 relative expression ([9]; 24h, Fig 7A): 0.4368 and 0.5508 and 0.2972
- OBP1 relative expression ([9]; 48h, Fig 7A): 0.9445 and 0.6245 and 1.003
- OBP2 relative expression ([9]; 48h, Fig 7A): 3.877 and 2.855 and 4.158
- OBP3 relative expression ([9]; 48h, Fig 7A): 2.98 and 1.807 and 1.705
- OBP4 relative expression ([9]; 48h, Fig 7A): 1.105 and 0.8073 and 0.7508
- OBP7 relative expression ([9]; 48h, Fig 7A): 0.7647 and 0.5685 and 0.6675
- OBP4 relative expression ([9]; 72h, Fig 7A): 0.7926 and 1.238 and 0.8444
- OBP6 relative expression ([9]; 72h, Fig 7A): 0.6207 and 0.9359 and 1.164
- OBP3 relative expression ([9]; 96h, Fig 7A): 2.791 and 2.514 and 4.498
- OBP4 relative expression ([9]; 96h, Fig 7A): 1.221 and 0.8392 and 1.362
- OBP6 relative expression ([9]; 96h, Fig 7A): 0.4452 and 0.8016 and 0.4814
- OBP7 relative expression ([9]; 96h, Fig 7A): 0.7369 and 0.9206 and 0.9224
- OBP8 relative expression ([9]; 96h, Fig 7A): 0.9529 and 0.9384 and 0.8486
- relative gene expression of BtOBP1-8 following neophytadiene exposure ([9]; continuous release for 96 h, measured every 24 h): Only two genes, BtOBP2 and BtOBP3, increased their expression over time

Compound: C=C(C)[C@H]1CC=C(C)CC1 [limonene]
- effect on settling of whitefly on an otherwise-preferred tomato cultivar [1]: repelled

Compound: CC1=CCC2CC1C2(C)C (stereo not drawn) [α‐pinene]
- Whitefly preference for plant volatiles versus control (solvent only): number of whiteflies in the volatile arm [4]: 23 and 24 and 30 and 26 and 17 and 40 and 21 and 6 and 43
- impact of volatile on whitefly preference [4]: significantly repelled whiteflies
- IC50 [8]: 14.6 ± 0.57 µM
- Ki [8]: 10.9 ± 0.43 µM

Compound: CC1=CC=C(C(C)C)CC1 [α‐terpinene]
- Whitefly preference for plant volatiles versus control (solvent only): number of whiteflies in the volatile arm [4]: 9 and 19 and 28 and 37 and 36 and 43
- impact of volatile on whitefly preference [4]: significantly repelled whiteflies
- IC50 [8]: 20.4 ± 1.29 µM
- Ki [8]: 15.2 ± 0.96 µM

Compound: C=C1CC/C=C(\C)CC[C@@H]2[C@@H]1CC2(C)C [β‐caryophyllene]
- Whitefly preference for plant volatiles versus control (solvent only): number of whiteflies in the volatile arm [4]: 41 and 20 and 16 and 6 and 19 and 27 and 31 and 10 and 39
- impact of volatile on whitefly preference [4]: significantly repelled whiteflies
- IC50 [8]: 14.2 ± 0.72 µM
- Ki [8]: 10.6 ± 0.54 µM

Compound: C=C1C=CC(C(C)C)CC1 (stereo not drawn) [β‐phellandrene]
- Whitefly preference for plant volatiles versus control (solvent only): number of whiteflies in the volatile arm [4]: 34 and 28 and 40 and 32 and 46 and 20 and 36 and 43 and 14
- impact of volatile on whitefly preference [4]: significantly repelled whiteflies
- IC50 [8]: 25.4 ± 3.39 µM
- Ki [8]: 19 ± 2.53 µM

Compound: C=C1CCC2CC1C2(C)C (stereo not drawn) [β‐pinene]
- Whitefly preference for plant volatiles versus control (solvent only): number of whiteflies in the volatile arm [4]: 12 and 26 and 37 and 29 and 28 and 24 and 10 and 31 and 15
- impact of volatile on whitefly preference [4]: significantly repelled whiteflies
- IC50 [8]: 13.7 ± 0.51 µM
- Ki [8]: 10.2 ± 0.38 µM

Compound: Cc1ccc(C(C)C)cc1 [ρ‐cymene]
- Whitefly preference for plant volatiles versus control (solvent only): number of whiteflies in the volatile arm [4]: 10 and 20 and 17 and 26 and 18 and 25 and 27 and 23
- impact of volatile on whitefly preference [4]: significantly repelled whiteflies
- IC50 [8]: 16.3 ± 0.49 µM
- Ki [8]: 12.1 ± 0.36 µM
- effect on settling of whitefly on an otherwise-preferred tomato cultivar [1]: repelled

Compound: phytol
- Whitefly preference for plant volatiles versus control (solvent only): number of whiteflies in the volatile arm [4]: 58 and 50 and 60 and 24 and 48 and 27 and 44 and 38
- impact of volatile on whitefly preference [4]: did not influence whitefly preference
- IC50 [8]: 26.1 ± 1.48 µM
- Ki [8]: 19.5 ± 1.1 µM
